Measured values published in patent US10363231B2, “Compounds and methods of treating ocular disorders” (CASE WESTERN RESERVE UNIVERSITY, priority 2014, dated 2019).
pIC50: −log10 of the molar value. Entries after “also recorded” stand apart in the source; their conditions may differ.

Legend:
[1] = test system: Abca4^−/−Rdh8^−/− mice; test: Toxicity in treated Abca4−/−Rdh8−/− mice (Table 2); type: in vivo; settings: 4-week-old Abca4−/−Rdh8−/− mice, oral gavage
Procedure: (§1) Abca4^−/−Rdh8^−/− double knockout mice were generated as previously described. Mice were housed in the animal facility at the School of Medicine, Case Western Reserve University, where they were maintained under either complete darkness or in a 12-h light (˜300 lux) and 12-h dark cycle. All tested primary amines were suspended in 100 μl of soybean oil with less than 10% (v/v) DMSO and were administered by oral gavage with a 22-gauge feeding needle. Experimental manipulations in the dark were done under dim red light transmitted through a Kodak No. 1 safelight filter (transmittance >560 nm). All animal procedures and experiments were approved by the Case Western Reserve University Animal Care Committees and conformed to recommendations of the American Veterinary Medical Association Panel on Euthanasia and the Association of Research for Vision and Ophthalmology.
(§2) For practical reasons, only eight of these leading compounds (QEA-B-001-NH2, B-002-NH2, C-001-NH2, C-003-NH2, C006-NH2, E-002-NH2, TEA-B-002-NH2, and C00-2-NH2) along with retinylamine as a control were selected for further testing in Abca4^−/−Rdh8^−/− mice, an animal model for light-induced retinal degeneration (Table 2). Additionally, two novel amines with moderate inhibition of RPE65 (QEA-A-006-NH2 and QEA-B-003-NI 12) and one with strong inhibition (QEA-A-005-NH2) were added to the first test group for comparison. Mice were gavaged with 1 mg of a test compound and then kept in the dark for 24 h prior to being exposed to bright light (˜10,000 lux) for 1 h. Retinal damage was assessed with OCT that measured the thickness of the outer nuclear layer and by quantification of tissue 11-cis retinal levels. An example is shown for imaging results in FIG. 4A and for 11-cis-retinal quantification in FIG. 4B. Additionally, extracts of livers obtained from treated mice were analyzed by HPLC to estimate the amounts of corresponding amides (FIG. 4C).

[2] = target: T1, RPE65 (Bos taurus, UniProt Q28175); test: Retinoid isomerase activity assay (11-cis-retinol production in RPE microsomes); type: biochemical, Bovine; settings: for pIC50: primary amine, decline in 11-cis-retinol production in RPE microsomes, read-out: Inhibition of RPE65
T1 construct: from tissue; host or cells: bovine retinal pigment epithelium (RPE) microsomes
Procedure: Bovine RPE microsomes were isolated from RPE homogenates by differential centrifugation as previously described. The resulting microsomal precipitate was resuspended in 10 mM Bis-Tris propane/HCl buffer, pH 7.4, to achieve a total protein concentration of […]. Then the mixture was placed in a quartz cuvette and irradiated for 6 min at 4° C. with a ChromatoUVE transilluminator (model TM-15; UVP) to eliminate residual retinoids. After irradiation, DTT was added to the RPE microsomal mixture to achieve a final concentration of 5 mM.
[…] The resulting mixture was pre incubated at room temperature for 5 min. Then 1 μl of all-trans-retinol (in DMF, final concentration 20 μM) was added. The resulting mixture was incubated at 37° C. for 15 min to 2 h. The reaction was quenched by adding 300 μl of methanol, and products were extracted with 300 μl of hexanes. Production of 11-cis-retinol was quantified by normal phase HPLC with 10% (v/v) ethyl acetate in hexanes as the eluent at a flow rate of 1.4 ml·min^−1. Retinoids were detected by monitoring their absorbance at 325 nm and quantified based on a standard curve representing the relationship between the amount of 11-cis-retinol and the area under the corresponding chromatographic peak.
Primary amines of compounds derived from the aldehydes were subsequently tested for their ability to inhibit the RPE65-dependent retinoid isomerization reaction in dose- and time dependent reactions as exemplified by QEB-B-001 (FIG. 3B). Amines were incubated with RPE microsomes in the presence of all-trans-retinol and the 11-cis-retinoid binding protein, CRALBP.
Progress of the enzymatic reaction was monitored by HPLC separation of retinoids and quantification of 11-cis-retinol with a decrease of 11-cis-retinol production reflecting inhibition of RPE65 by a tested amine. […] This moderate inhibition could be enhanced by shortening the polyene chain length (TEA amines) or diminished by introducing an extra positive charge into the tested compounds (QEA-G amines).

[3] = Analysis of retinoid composition in mouse tissues: amide forms in liver by HPLC; type: in vivo, mice; settings: oral gavage; for Protection by amide in liver: 4-week-old Abca4−/−Rdh8−/− mice, dark 24 h, liver extracts by HPLC
Procedure: as §1
Two mg of primary amines were administered by oral gavage to 4-week-old Abca4^−/−Rdh8^−/− mice, which then were kept in the dark for 24 h. Then mice were euthanized, and their livers were homogenized in 1 ml of 10 mM sodium phosphate buffer, pH 7.4, containing 50% methanol (v/v). The resulting mixture was extracted with 4 ml of hexanes. Extracts were dried in vacuo, and reconstituted in 300 μl of hexanes. 100 μl of this solution was analyzed by HPLC as described above for the LRAT activity assay.
as §2

T1 sequence (Q28175 whole entry): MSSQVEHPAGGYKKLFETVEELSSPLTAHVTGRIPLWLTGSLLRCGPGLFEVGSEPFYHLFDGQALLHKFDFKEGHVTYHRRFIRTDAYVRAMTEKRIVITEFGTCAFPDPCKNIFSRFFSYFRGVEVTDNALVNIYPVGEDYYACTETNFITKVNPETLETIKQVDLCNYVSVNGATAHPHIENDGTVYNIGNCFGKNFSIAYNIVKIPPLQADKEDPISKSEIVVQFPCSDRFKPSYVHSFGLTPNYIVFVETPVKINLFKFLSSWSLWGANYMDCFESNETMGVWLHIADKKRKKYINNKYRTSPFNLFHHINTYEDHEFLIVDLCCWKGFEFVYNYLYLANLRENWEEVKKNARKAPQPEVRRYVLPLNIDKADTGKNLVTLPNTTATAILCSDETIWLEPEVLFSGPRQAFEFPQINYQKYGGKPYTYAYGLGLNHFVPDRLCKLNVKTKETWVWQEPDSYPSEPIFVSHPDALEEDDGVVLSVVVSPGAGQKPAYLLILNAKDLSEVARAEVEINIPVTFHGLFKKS

With `CC1=C(/C=C/C(C)=C/C=C/C(C)=C/CN)C(C)(C)CCC1` [QEA-A-001-NH2, retinylamine] the Toxicity [1] was “None”, the pIC50 [2] was over 5.00 and the “Protection by amide in liver” value [3] was “Strong”.
For `CC(/C=C/C=C(/C=C/C1=CCCCC1)C(C)(C)C)=C\CN` [QEA-B-001-NH2], the Toxicity [1] was “Yes”, the “inhibition of RPE65” value [2] was “modest or non-inhibitor; also recorded: did not inhibit” and the pIC50 [2] was under 3.70. The “Protection by amide in liver” value [3] was “Strong” and the “amidation in vivo (accumulation of amide forms in mouse liver)” value ([3]; liver HPLC) was “efficiently converted into amides”.
